Experimental data published in patent US9222118B2 (priority 2008, dated 2015).
Entries after “also recorded” stand apart in the source; their conditions may differ. Structures can show the parent of a compound that is named as a salt.

Key:
[1] = system: VSVΔG*-Ebolavirus GP; type: cell-based; settings: 10 μM
[2] = system: EbolaΔVP30-GFP; type: cell-based, Zaire ebolavirus
[3] = system: Ebolavirus minigenome; type: cell-based
[4] = system: EbolaΔVP30-GFP virus; test: microbe, parasite or virus in culture; type: cell-based, Zaire ebolavirus; settings: Zaire ebolavirus
[5] = system: Vesicular stomatitis virus (VSV) strain Indiana; type: cell-based
[6] = system: adenovirus Ad-5; type: cell-based
[7] = system: vaccinia virus; type: cell-based
[8] = system: VeroVP30 cells; settings: green monkey
[9] = in vitro; settings: green monkey
[10] = system: VSV pseudotyped with the GP protein of Marburgvirus; type: cell-based
[11] = system: VSV; type: cell-based
[12] = system: influenza virus; type: cell-based
[13] = system: phosphoinositide-3 (PI3) kinase-Akt pathway; type: cell-based
[14] = system: VSV pseudotyped with Ebola GP glycoprotein; type: cell-based, Ebolavirus
[15] = system: VSV pseudotyped with GPs of all known subtypes of Ebolavirus (Zaire, Reston, Sudan, Ivory Coast); type: cell-based

SMILES	Infectivities of VSVΔG*-Ebolavirus GP standardized by the infectivities of VSVΔG*-VSV G [1]	reduction of EbolaΔVP30 virus growth [2]	% luc activity from the Ebolavirus minigenome [3]	IC50 [4]	inhibition at 5 µM ([4]; read-out: % GFP inhibition)	inhibition of VSV growth [5]	inhibition of adenovirus growth [6]	inhibition of vaccinia virus growth [7]	% cell viability [8]	CC50 [9]	inhibition of EbolaΔVP30-GFP growth [2]	effect on protein expression from the Ebolavirus minigenome [3]	reduction of virus titers [10]	effect on growth of VSV [11]	effect on growth of influenza virus [12]	inhibition of the PI3 kinase-Akt pathway [13]	infection of VSV pseudotyped with Ebola GP bound to cell surfaces [14]	reduction of titers of pseudotyped viruses [15]
COC1=C2C[C@@H](C)C[C@H](OC)[C@H](O)[C@@H](C)/C=C(\C)[C@H](OC(N)=O)[C@@H](OC)/C=C\C=C(/C)C(=O)NC(=CC1=O)C2=O [GM, geldanamycin]	137%	30%	24.7%±7.7%	–	–	–	–	–	–	–	–	–	–	–	–	–	–	–
CC(=O)O[C@@H]1C[C@H]2C(C)(C)C(=O)C=C[C@]2(C)[C@H]2CC[C@@]3(C)[C@H](c4ccoc4)OC(=O)[C@H]4O[C@]43[C@@]21C [Gedunin]	–	–	1.3%±0.2%	330 nM	102%	slightly delay the propagation	slightly inhibitory; also recorded: slightly delay the propagation	slightly delay the propagation	77%	> 10 µM	completely inhibited	inhibit protein expression from the Ebolavirus minigenome	–	–	–	–	–	–
CN1C2CCC1CC(OC(c1ccccc1)c1ccccc1)C2 (stereo not shown) [benztropine mesylate]	–	–	–	–	–	–	–	–	–	–	–	–	about 75%	does not affect the growth	does not affect the growth	did not inhibit	inhibit infection	98-99%
